Entries after “also recorded” stand apart in the source; their conditions may differ.
Experiments:
p65/NFKB (S536) = experiment: ELISA of p65/NFKB (S536) in PANC-1 cells; type: cell-based, human; details: rIGF1, 5 μM, 24 hours
Experimental: ELISA assay was used to evaluate the effect of GS compounds on protein activity levels in PANC-1 cancer cells. PANC-1 cells were serum-starved overnight and then treated with rIGF1 (100 ng/mL) for 24 hours, with or without GS27 (5 μM). The levels of the following proteins were evaluated by ELISA assay: a) p70 S6 (T389) (cat no. 54164C, Cell Signaling); b) pAKT (S473), (cat no. 80895, Cell Signaling); c) pACLY (S455), (cat no. okag1672, Avivasysbio); d) pAMPK (T172) (cat no. 7959C, Cell Signaling) and e) p65/NFKB (S536), (cat no. 7173, Cell Signaling).
PANC-1 is a human pancreatic ductal adenocarcinoma cell line derived from the carcinoma of a person.
The molecular mechanism of action of GS27, a compound that has exerted potent anti-cancer activity in different cancer cell lines including pancreatic cancer cells, was investigated. Oleacein has been implicated to have anti-inflammatory and metabolic effects, thus the potential effects of GS27 in different metabolic and inflammatory pathways were evaluated. Specifically, the protein levels of p70 S6 (T389), pAKT (S473), pACLY (S455), pAMPK (T172) and p65/NFKB (S536) were evaluated by ELISA assay in PANC-1 pancreatic cancer cells treated with 5 μM GS27. GS27 reduced p70 S6 and AKT phosphorylation levels, while it increased AMPK phosphorylation.

[1] = tested on: C4-2 castration-resistant prostate cells; experiment: C4-2 castration-resistant prostate cancer cell growth; type: cell-based; details: 72 hours, androgen-depleted conditions
Experimental: The effect of GS27 on castration-resistant prostate cancer cells was evaluated, alone and in combination with enzalutamide (ENZ). Enzalutamide (XTANDI; Astellas Pharma), is an androgen receptor inhibitor used for treatment of patients with prostate cancer. In a further study, the effect of G27 in combination with ENZ on castration-resistant prostate cancer cells was compared to combination treatment of NDI-091143 with ENZ.
C4-2 Castration-resistant prostate cells cultured in androgen-depleted conditions were treated with 1 μM of GS27, in the presence or absence of 10 μM of enzalutamide (ENZ) for 72 hours.
C4-2 castration-resistant prostate cells cultured in androgen-depleted conditions were treated with 1 μM of GS27 or NDI-091143, in the presence of 10 μM of enzalutamide (ENZ) for 72 hours.

HepG2 liver cancer tumor = experiment: HepG2 xenograft mouse model; type: in vivo, nu/nu mice; details: 20 mg/kg i.p. every 5 days, until 20 days post-treatment
Experimental: The effect of GS27 on liver cancer tumor growth in mice was evaluated in a HepG2 xenograft mouse model. HepG2 is a human liver cancer cell line, obtained from ATCC (cat. No HB-8065). Since hepatocellular carcinoma is often treated with the chemotherapeutic agent doxorubicin and embolization, results were compared to those obtained with doxorubicin.
Xenograft tumors were generated by injecting HepG2 liver cancer cells (2.5×10^6) into the right flank of female nu/nu mice (Charles River Laboratories). All mice developed tumors in 10 days with size of approximately 100 mm3. For each experiment, mice were randomly distributed into equal groups (4 mice per group) that were untreated, or treated by intraperitoneal injections every 5 days with 20 mg/kg GS27 or doxorubicin. Tumor volume (average, SD) was evaluated until 20 days post-treatment.

[2] = tested on: AsPC-1 pancreatic cancer tumor; experiment: AsPC-1 xenograft mouse model; type: in vivo, NOD/SCID mice; details: 100 mg/kg i.p. daily for 5 days
Experimental: The effect of GS27 on pancreatic cancer tumor growth in mice was evaluated in a AsPC-1 xenograft mouse model.
Xenograft tumors were generated by injecting AsPC-1 pancreatic cancer cells (0.5×10^6) into the right flank of male NOD/SCID mice (n=5/group). All mice developed tumors in 10 days with size of approximately 100 mm3. For each experiment, mice were randomly distributed into equal groups (5 mice per group) that were untreated or treated by intraperitoneal injections daily for 5 days with 100 mg/kg GS27. Tumor volume (average, SD) and the weight of the animals were evaluated until 24 days post-treatment.

[3] = tested on: AsPC-1 pancreatic cancer tumor cells; experiment: Nile red lipid content of AsPC-1 xenograft tumors; type: in vivo, mice; details: 100 mg/kg i.p., tumors collected 24 days post-treatment
Experimental: Tumors derived from the mice treated by intraperitoneal injection with GS27 at 100 mg/kg were collected 24 days post-treatment. The tumors were evaluated for their lipid content using the dye nile red as a fluorescent vital stain for the detection of intracellular lipid droplets by fluorescence microscopy and flow cytofluorometry, as described previously (Greenspan, Peter et al., J Cell Biol, 1985, 100(3):965-973). […] Quantification of the data is shown in the bar graph.

With `C/C=C(/C=O)[C@@H](CC=O)CC(=O)SCCc1ccccc1` [GS27, S-phenethyl (3S,4E)-4-formyl-3-(2-oxoethyl)hex-4-enethioate] the p65/NFKB activity (p65/NFKB (S536)) was “inhibiting”, the “growth of C4-2 prostate cancer cells, combination with enzalutamide” value ([1]; 1 μM plus 10 μM enzalutamide) was “substantial additive effect; also recorded: more effective than NDI-091143 and enzalutamide” and the “growth of C4-2 prostate cancer cells, compound alone” value ([1]; 1 μM) was “inhibited the growth”. The “reduction in the tumor size, HepG2 liver cancer” value (HepG2 liver cancer tumor) was 80%, the “weight of the mice” value [2] was “did not affect” and the “inhibition of AsPC-1 pancreatic cancer tumor growth” value ([2]; until 24 days post-treatment) was 34%. The “reduction in the lipid content of AsPC-1 tumor cells” value [3] was 55%.

From US12414960B2, “Analogues of oleuropein and oleacein and uses thereof” (Attica Sciences Ltd., priority 2020, dated 2025)
